Test: organ distribution (including lymph node concentration) after intravenous administration in rats
Type: in vivo
Conditions: 24 hours after administration
Method: After intravenous administration of 100 μmol of total gadolinium/kg of body weight of a polar Gd-chelate with perfluorinated side chains (metal complex X) in rats, the metal content in various organs as well as in the lymph nodes (pooled as mesenteric and peripheral lymph nodes) was determined 24 hours after administration (MW, n=2).
After intravenous administration of 200 μmol of total gadolinium/kg of body weight of a polar Gd-chelate with perfluorinated side chains (metal complex V) in rats, the metal content in various organs as well as in the lymph nodes (pooled as mesenteric and peripheral lymph nodes) was determined 24 hours after administration (MW, n=2).
After intravenous administration of 200 μmol of total gadolinium/kg of body weight of a polar Gd-chelate with perfluorinated side chains (metal complex III) in rats, the metal content in various organs as well as in the lymph nodes (pooled as mesenteric and peripheral lymph nodes) was determined 24 hours after administration (MW, n=2).

[1] = Mesenteric lymph nodes, 200 μmol Gd/kg i.v.
[2] = Peripheral lymph nodes, 200 μmol Gd/kg i.v.
[3] = Mesenteric lymph nodes, 100 μmol Gd/kg i.v.
[4] = Peripheral lymph nodes, 100 μmol Gd/kg i.v.

## O=C([O-])CN1CCN(CC(=O)[O-])CCN(CC(O)CNC(=O)CCCC(=O)N2CCN(C(F)(F)C(F)(F)C(F)(F)C(F)(F)C(F)(F)C(F)(F)C(F)(F)C(F)(F)F)CC2)CCN(CC(=O)[O-])CC1.[Gd+3] (stereo not drawn) [metal complex III]
Blood, 200 μmol Gd/kg i.v.
  metal content: 83 μmol Gd/L
  metal content, % Dose: 1.15 % Dose
Brain, 200 μmol Gd/kg i.v.
  metal content: 10 μmol Gd/L
  metal content, % Dose: 0.05 % Dose
Carcass, 200 μmol Gd/kg i.v.
  metal content: 242 μmol Gd/L
  metal content, % Dose: 36.30 % Dose
Femur, 200 μmol Gd/kg i.v.
  metal content: 76 μmol Gd/L
  metal content, % Dose: 0.32 % Dose
Heart, 200 μmol Gd/kg i.v.
  metal content: 82 μmol Gd/L
  metal content, % Dose: 0.13 % Dose
Intestine, 200 μmol Gd/kg i.v.
  metal content: 230 μmol Gd/L
  metal content, % Dose: 3.56 % Dose
Kidneys, 200 μmol Gd/kg i.v.
  metal content: 489 μmol Gd/L
  metal content, % Dose: 1.97 % Dose
Liver, 200 μmol Gd/kg i.v.
  metal content: 1222 μmol Gd/L
  metal content, % Dose: 26.28 % Dose
Lung, 200 μmol Gd/kg i.v.
  metal content: 338 μmol Gd/L
  metal content, % Dose: 0.96 % Dose
[1]
  metal content: 455 μmol Gd/L
  metal content, % Dose: 0.33 % Dose
Muscle, 200 μmol Gd/kg i.v.
  metal content: 28 μmol Gd/L
  metal content, % Dose: 0.04 % Dose
Pancreas, 200 μmol Gd/kg i.v.
  metal content: 203 μmol Gd/L
  metal content, % Dose: 0.48 % Dose
[2]
  metal content: 279 μmol Gd/L
  metal content, % Dose: 0.18 % Dose
Spleen, 200 μmol Gd/kg i.v.
  metal content: 464 μmol Gd/L
  metal content, % Dose: 0.89 % Dose
Stomach, 200 μmol Gd/kg i.v.
  metal content: 165 μmol Gd/L
  metal content, % Dose: 0.57 % Dose
Total, 200 μmol Gd/kg i.v.
  metal content, % Dose: 73.20 % Dose

## CC(C(=O)NCC(=O)N(CCOCCC(F)(F)C(F)(F)C(F)(F)C(F)(F)C(F)(F)C(F)(F)C(F)(F)C(F)(F)F)CC(O)CO)N1CCN(CC(=O)[O-])CCN(CC(=O)[O-])CCN(CC(=O)[O-])CC1.[Gd+3] (stereo not drawn) [metal complex V]
Blood, 200 μmol Gd/kg i.v.
  metal content: 15 μmol Gd/L
  metal content, % Dose: 0.18 % Dose
Brain, 200 μmol Gd/kg i.v.
  metal content: 4 μmol Gd/L
  metal content, % Dose: 0.02 % Dose
Carcass, 200 μmol Gd/kg i.v.
  metal content: 268 μmol Gd/L
  metal content, % Dose: 37.93 % Dose
Femur, 200 μmol Gd/kg i.v.
  metal content: 13 μmol Gd/L
  metal content, % Dose: 0.05 % Dose
Heart, 200 μmol Gd/kg i.v.
  metal content: 14 μmol Gd/L
  metal content, % Dose: 0.02 % Dose
Intestine, 200 μmol Gd/kg i.v.
  metal content: 113 μmol Gd/L
  metal content, % Dose: 1.56 % Dose
Kidneys, 200 μmol Gd/kg i.v.
  metal content: 436 μmol Gd/L
  metal content, % Dose: 1.77 % Dose
Liver, 200 μmol Gd/kg i.v.
  metal content: 344 μmol Gd/L
  metal content, % Dose: 6.34 % Dose
Lung, 200 μmol Gd/kg i.v.
  metal content: 62 μmol Gd/L
  metal content, % Dose: 0.17 % Dose
[1]
  metal content: 70 μmol Gd/L
  metal content, % Dose: 0.05 % Dose
Muscle, 200 μmol Gd/kg i.v.
  metal content: 9 μmol Gd/L
  metal content, % Dose: 0.02 % Dose
Pancreas, 200 μmol Gd/kg i.v.
  metal content: 30 μmol Gd/L
  metal content, % Dose: 0.05 % Dose
[2]
  metal content: 44 μmol Gd/L
  metal content, % Dose: 0.02 % Dose
Spleen, 200 μmol Gd/kg i.v.
  metal content: 116 μmol Gd/L
  metal content, % Dose: 0.17 % Dose
Stomach, 200 μmol Gd/kg i.v.
  metal content: 28 μmol Gd/L
  metal content, % Dose: 0.08 % Dose
Total, 200 μmol Gd/kg i.v.
  metal content, % Dose: 48.43 % Dose

## COCCN(CCOCCC(F)(F)C(F)(F)C(F)(F)C(F)(F)C(F)(F)C(F)(F)C(F)(F)C(F)(F)F)C(=O)CNC(=O)C(C)N1CCN(CC(=O)[O-])CCN(CC(=O)[O-])CCN(CC(=O)[O-])CC1.[Gd+3] (stereo not drawn) [metal complex X]
Blood, 100 μmol Gd/kg i.v.
  metal content: 1 μmol Gd/L
  metal content, % Dose: 0.01 % Dose
Brain, 100 μmol Gd/kg i.v.
  metal content: 1 μmol Gd/L
  metal content, % Dose: 0.01 % Dose
Carcass, 100 μmol Gd/kg i.v.
  metal content: 192 μmol Gd/L
  metal content, % Dose: 34.01 % Dose
Femur, 100 μmol Gd/kg i.v.
  metal content: 3 μmol Gd/L
  metal content, % Dose: 0.01 % Dose
Heart, 100 μmol Gd/kg i.v.
  metal content: 3 μmol Gd/L
  metal content, % Dose: 0.01 % Dose
Intestine, 100 μmol Gd/kg i.v.
  metal content: 65 μmol Gd/L
  metal content, % Dose: 1.22 % Dose
Kidneys, 100 μmol Gd/kg i.v.
  metal content: 150 μmol Gd/L
  metal content, % Dose: 0.65 % Dose
Liver, 100 μmol Gd/kg i.v.
  metal content: 104 μmol Gd/L
  metal content, % Dose: 2.34 % Dose
Lung, 100 μmol Gd/kg i.v.
  metal content: 18 μmol Gd/L
  metal content, % Dose: 0.05 % Dose
[3]
  metal content: 19 μmol Gd/L
  metal content, % Dose: 0.01 % Dose
Muscle, 100 μmol Gd/kg i.v.
  metal content: 1 μmol Gd/L
  metal content, % Dose: 0.00 % Dose
Pancreas, 100 μmol Gd/kg i.v.
  metal content: 6 μmol Gd/L
  metal content, % Dose: 0.02 % Dose
[4]
  metal content: 11 μmol Gd/L
  metal content, % Dose: 0.01 % Dose
Spleen, 100 μmol Gd/kg i.v.
  metal content: 54 μmol Gd/L
  metal content, % Dose: 0.07 % Dose
Stomach, 100 μmol Gd/kg i.v.
  metal content: 49 μmol Gd/L
  metal content, % Dose: 0.18 % Dose
Total, 100 μmol Gd/kg i.v.
  metal content, % Dose: 38.58 % Dose

Reference: US6818203B2, “Use of perfluoroalkyl-containing metal complexes as contrast media in MR-imaging for visualization of plaque, tumors and necroses” (Schering Aktiengesellschaft, priority 2000, dated 2004)
